Results on five compounds are retold here after ChEMBL document CHEMBL1201862, “PubChem BioAssay data set” (2004).

Broadly, the IC50 is the point on the concentration scale where inhibition reaches its midpoint. The term AC50 denotes the concentration giving half of the maximal activity seen. One may read the CC50 as the concentration at which the toxic effect on the cells reaches its halfway point. One may read the EC50 as the concentration needed to bring the measured effect to its halfway point.

The subject of one assay is HEK293. As to the kind of experiment: SAR analysis of compounds that are cytotoxic to HEK293 - Set 3. [Related pubchem assays (depositor defined):AID1575, AID1578, AID1848, AID1849, AID2001, AID2333, AID2334, AID2335, AID2337, AID2469]. The format is functional, cell-based. The conditions noted are these: Homo sapiens.
Assay [1] deals with Nucleotide-binding oligomerization domain-containing protein 1 (Homo sapiens, UniProt Q9Y239). As to the kind of experiment: SAR analysis of compounds that inhibit NOD1 - Set 3. [Related pubchem assays (depositor defined):AID1566, AID1575, AID1578, AID1849, AID1852, AID2333, AID2335, AID2466]. The assay is classed as functional.
Nucleotide-binding oligomerization domain-containing protein 1, sequence (Q9Y239 whole entry, the tested form may be a part): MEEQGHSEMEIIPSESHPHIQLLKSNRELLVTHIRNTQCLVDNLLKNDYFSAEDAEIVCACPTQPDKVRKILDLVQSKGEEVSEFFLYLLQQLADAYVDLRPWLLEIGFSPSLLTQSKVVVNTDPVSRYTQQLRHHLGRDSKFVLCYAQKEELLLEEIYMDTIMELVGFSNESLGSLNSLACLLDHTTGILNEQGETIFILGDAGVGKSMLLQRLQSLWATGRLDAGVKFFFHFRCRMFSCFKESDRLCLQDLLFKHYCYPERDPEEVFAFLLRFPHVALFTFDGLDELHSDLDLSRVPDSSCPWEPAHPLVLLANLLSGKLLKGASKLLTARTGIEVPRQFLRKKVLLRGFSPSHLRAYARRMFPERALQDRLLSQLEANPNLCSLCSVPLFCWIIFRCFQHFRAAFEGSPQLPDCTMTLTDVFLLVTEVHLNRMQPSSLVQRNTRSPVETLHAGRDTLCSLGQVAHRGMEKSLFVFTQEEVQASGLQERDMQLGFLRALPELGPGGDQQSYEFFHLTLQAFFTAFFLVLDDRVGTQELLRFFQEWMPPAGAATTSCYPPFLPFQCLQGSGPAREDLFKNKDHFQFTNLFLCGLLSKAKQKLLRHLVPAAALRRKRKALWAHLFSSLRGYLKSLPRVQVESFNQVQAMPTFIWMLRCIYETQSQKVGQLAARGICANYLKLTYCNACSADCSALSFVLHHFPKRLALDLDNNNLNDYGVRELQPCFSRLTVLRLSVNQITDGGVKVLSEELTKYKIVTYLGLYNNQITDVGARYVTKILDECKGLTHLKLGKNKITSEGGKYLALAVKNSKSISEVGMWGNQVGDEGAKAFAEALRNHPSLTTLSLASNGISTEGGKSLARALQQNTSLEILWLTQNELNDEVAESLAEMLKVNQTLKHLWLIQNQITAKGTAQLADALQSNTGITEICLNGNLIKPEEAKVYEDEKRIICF
For the next assay, the target named is Tumor necrosis factor (Homo sapiens, UniProt P01375). As to the kind of experiment: analog potency on TNFa NF-kB signaling – cell-based, set 3, SAR follow-up (AID 2801). The format is functional.
Tumor necrosis factor, sequence (P01375 whole entry, the tested form may be a part): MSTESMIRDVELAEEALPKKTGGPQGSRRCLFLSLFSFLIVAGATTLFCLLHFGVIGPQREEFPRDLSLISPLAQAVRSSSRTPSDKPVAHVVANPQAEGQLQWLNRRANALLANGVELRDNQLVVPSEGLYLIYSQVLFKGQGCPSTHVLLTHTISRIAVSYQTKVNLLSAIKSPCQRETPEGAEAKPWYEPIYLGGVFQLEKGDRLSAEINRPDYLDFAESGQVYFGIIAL
Assay [2] deals with Nucleotide-binding oligomerization domain-containing protein 2 (Homo sapiens, UniProt Q9HC29). The assay can be described thus: inhibition of MDP-driven NOD2 NF-kB reporter – cell-based, set 3, SAR follow-up (AID 2799). The format is functional.
Nucleotide-binding oligomerization domain-containing protein 2, sequence (Q9HC29 whole entry, the tested form may be a part): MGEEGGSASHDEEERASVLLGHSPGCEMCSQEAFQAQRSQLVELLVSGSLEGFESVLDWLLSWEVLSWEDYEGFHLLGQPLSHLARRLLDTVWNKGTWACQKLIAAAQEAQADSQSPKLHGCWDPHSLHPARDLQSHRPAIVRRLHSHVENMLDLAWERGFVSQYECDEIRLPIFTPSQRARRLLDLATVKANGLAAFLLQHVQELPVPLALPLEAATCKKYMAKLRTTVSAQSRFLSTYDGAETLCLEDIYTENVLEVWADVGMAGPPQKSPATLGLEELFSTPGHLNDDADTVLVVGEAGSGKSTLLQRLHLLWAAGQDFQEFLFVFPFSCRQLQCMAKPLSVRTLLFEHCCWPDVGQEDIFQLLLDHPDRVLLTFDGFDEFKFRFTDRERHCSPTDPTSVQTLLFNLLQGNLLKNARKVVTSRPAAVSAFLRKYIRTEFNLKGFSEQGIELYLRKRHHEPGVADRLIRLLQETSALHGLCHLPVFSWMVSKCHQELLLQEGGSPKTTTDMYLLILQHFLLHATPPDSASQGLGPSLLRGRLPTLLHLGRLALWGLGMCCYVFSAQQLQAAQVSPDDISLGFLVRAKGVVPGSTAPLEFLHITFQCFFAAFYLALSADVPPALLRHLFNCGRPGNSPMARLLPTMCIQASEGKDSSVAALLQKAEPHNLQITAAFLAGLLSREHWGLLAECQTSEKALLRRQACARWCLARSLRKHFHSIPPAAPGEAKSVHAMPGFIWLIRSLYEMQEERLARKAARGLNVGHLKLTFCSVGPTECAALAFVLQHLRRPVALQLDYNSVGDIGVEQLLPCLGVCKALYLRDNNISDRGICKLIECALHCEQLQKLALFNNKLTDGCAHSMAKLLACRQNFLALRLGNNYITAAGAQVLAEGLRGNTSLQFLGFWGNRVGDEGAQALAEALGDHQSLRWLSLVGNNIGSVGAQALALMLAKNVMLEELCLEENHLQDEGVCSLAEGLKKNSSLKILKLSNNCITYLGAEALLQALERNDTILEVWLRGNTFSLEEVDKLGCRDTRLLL
Assay [3] addresses G-protein coupled receptor 55 (Homo sapiens, UniProt Q9Y2T6). The assay can be described thus: blockers of GPR55 signalling, imaged – imaging, image-based, counter-screen for GPR35 antagonist project, SAR follow-up (AID 2397). The assay is classed as functional.
For assay [4], the target named is G-protein coupled receptor 35 (Homo sapiens, UniProt Q9HC97). As to the kind of experiment: SAR Analysis for the identification of Selective Antagonists of ERK1/2 Activity in GPR35-Overexpressing U2OS Cells. [Related pubchem assays: 2079, 2058 ]. The assay is classed as functional, cell-based.
G-protein coupled receptor 35, sequence (Q9HC97 whole entry): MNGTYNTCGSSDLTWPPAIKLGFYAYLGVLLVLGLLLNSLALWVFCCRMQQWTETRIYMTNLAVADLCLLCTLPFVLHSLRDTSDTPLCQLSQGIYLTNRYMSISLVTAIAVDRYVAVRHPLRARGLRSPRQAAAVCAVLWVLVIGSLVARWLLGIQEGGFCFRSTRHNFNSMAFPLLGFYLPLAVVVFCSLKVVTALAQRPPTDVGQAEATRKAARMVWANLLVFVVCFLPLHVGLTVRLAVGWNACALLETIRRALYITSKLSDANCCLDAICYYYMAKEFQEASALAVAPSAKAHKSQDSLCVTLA
Assay [5] in a line: viability loss of HMLE_sh_eGFP cells – cell-based, luminescence, counter-screen for HMLE_sh_ECad selective toxicity project, dose response (AID 463074).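 Also: HMLE human mammary epithelial cells expressing control shRNA against eGFP.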 The format is functional, Homo sapiens.
The nature of assay [6]: Luminescence Cell-Based Dose Retest to Confirm Inhibitors of Cancer Stem Cells. [Related pubchem assays (depositor defined):AID2717, AID2721]. The assay is classed as functional. Particulars: Homo sapiens.
Another assay has as its system Vero. The assay can be described thus: cells. The assay is classed as functional. The conditions noted are these: Chlorocebus sabaeus.
Assay [7] deals with Kappa-type opioid receptor (Homo sapiens, UniProt P41145). The assay can be described thus: SAR analysis of small molecule agonists of the kappa opioid receptor via a luminescent beta-arrestin assay - Set 3. [Related pubchem assays (depositor defined):AID1777, AID1785, AID1786, AID1966, AID2133, AID2136, AID2284, AID2500]. The format is functional.
Kappa-type opioid receptor, sequence (P41145 whole entry): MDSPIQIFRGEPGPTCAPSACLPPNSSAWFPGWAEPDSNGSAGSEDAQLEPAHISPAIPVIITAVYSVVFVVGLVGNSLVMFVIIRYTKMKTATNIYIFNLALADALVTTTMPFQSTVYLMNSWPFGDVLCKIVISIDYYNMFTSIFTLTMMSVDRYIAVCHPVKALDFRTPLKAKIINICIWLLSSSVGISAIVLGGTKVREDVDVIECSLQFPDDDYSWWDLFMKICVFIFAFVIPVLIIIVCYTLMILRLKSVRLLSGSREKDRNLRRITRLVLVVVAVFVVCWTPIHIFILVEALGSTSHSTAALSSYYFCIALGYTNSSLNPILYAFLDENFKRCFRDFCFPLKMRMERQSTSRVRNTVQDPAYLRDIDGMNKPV
The target of assay [8] is Lysine-specific demethylase 4C (Homo sapiens, UniProt Q9H3R0). As to the kind of experiment: inhibition of JMJD2C H3K9me3 demethylation – biochemical, DELFIA europium, cherry-picked samples, dose response (AID 488835). The assay is classed as functional.
Lysine-specific demethylase 4C, sequence (Q9H3R0 whole entry): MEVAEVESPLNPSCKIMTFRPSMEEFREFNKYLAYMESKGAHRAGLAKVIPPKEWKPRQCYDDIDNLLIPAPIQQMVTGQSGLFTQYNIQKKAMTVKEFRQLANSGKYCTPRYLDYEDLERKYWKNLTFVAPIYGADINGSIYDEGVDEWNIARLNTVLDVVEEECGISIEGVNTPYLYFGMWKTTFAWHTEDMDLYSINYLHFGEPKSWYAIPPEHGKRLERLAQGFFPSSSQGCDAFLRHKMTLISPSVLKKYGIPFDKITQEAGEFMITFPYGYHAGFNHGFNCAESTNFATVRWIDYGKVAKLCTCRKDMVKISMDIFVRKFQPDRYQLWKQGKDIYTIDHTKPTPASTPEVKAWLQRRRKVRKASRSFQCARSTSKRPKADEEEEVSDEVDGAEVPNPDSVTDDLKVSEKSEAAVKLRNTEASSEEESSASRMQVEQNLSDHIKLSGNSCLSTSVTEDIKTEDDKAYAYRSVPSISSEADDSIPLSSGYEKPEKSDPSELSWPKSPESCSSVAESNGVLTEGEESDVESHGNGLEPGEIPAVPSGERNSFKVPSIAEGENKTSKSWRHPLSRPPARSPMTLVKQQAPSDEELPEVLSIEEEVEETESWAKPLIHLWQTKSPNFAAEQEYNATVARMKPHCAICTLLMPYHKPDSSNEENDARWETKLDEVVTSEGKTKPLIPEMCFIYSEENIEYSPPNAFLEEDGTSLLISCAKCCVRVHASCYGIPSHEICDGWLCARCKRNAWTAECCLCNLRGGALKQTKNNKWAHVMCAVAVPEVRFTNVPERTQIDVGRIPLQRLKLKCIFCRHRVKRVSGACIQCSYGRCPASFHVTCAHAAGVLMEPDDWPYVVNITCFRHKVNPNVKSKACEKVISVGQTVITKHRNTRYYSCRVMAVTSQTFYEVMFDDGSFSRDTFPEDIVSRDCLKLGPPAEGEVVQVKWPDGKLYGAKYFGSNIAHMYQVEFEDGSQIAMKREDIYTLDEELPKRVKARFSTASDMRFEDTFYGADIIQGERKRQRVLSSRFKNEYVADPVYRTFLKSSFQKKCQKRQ

Calls of active or inactive are those of the source.

G-protein coupled receptor 55, sequence (Q9Y2T6 whole entry): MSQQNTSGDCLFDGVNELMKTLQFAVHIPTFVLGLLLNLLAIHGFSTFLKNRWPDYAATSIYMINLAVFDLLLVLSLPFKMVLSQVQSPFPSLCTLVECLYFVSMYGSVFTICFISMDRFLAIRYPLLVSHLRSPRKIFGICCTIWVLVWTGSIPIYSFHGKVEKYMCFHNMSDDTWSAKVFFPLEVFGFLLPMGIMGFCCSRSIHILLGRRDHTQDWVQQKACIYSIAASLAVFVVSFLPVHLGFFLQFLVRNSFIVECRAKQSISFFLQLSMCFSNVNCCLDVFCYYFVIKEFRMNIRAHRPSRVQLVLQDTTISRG

In the case of `Cc1ccccc1S(=O)(=O)n1c(N)nc2ccccc21`, the IC50 (in the assay with HEK293; in assay [1]; on Tumor necrosis factor; in assay [2]) was > 20 µM (inactive) in each case.
As to `Cc1c(C(=O)Nc2ccc3c(c2)OCCO3)sc2ncnc(N3CCC(C)CC3)c12`, the figures for the IC50 in assay [3] and in assay [4] were 21.4 µM (inactive) and 20.6 µM (not active), respectively.
As to `Cc1cc(N/N=C/c2ccc(Cl)cc2Cl)nc(NCc2ccccc2)n1`, the AC50 in [5] was 32.2 µM (active); in assay [6] it was 3.49 µM (active). Further, in the assay with Vero, the CC50 is > 25 µM (active).
`c1ccc(CSc2nnc(-c3ccccn3)n2Cc2cccnc2)cc1`: the EC50 in assay [7] was > 20 µM (inactive).
Take `Oc1cc(NC2CCCCCC2)nc(O)n1`: the concentration at half-maximal activity (AC50) in assay [8] was 8.69 µM (active).
